# Tested on: glycolysis in HT1080 cells
# Assay: Glycolysis assay: oligomycin plus compound, cellular ATP by Cell Titer Glo
# Format: cell-based
# Details: Homo sapiens, HT-1080, 1 h, 10 μM oligomycin, one hour, class symbols
# Description: Therefore, an assay was developed that utilizes the combination of the glucose uptake inhibitors disclosed herein with oligomycin, a well-characterized inhibitor of ATP synthase. Because oligomycin inhibits ATP derived from oxidative phosphorylation, any remaining ATP production is derived from glycolysis. By reading out cellular ATP levels using the Promega Cell Titer Glo kit, the extent of glycolysis inhibition by the glucose uptake inhibitors disclosed herein can be assessed. […] Utilizing this experimental set-up, the IC50 of glycolysis inhibition for each compound can be determined.
# Determination of Glucose Uptake/GLUT Activity (Glycolysis Assay):
# HT1080 cells (as well as other cell types) were plated to confluency in 96-well plates. Cells were exposed to the combination of 10 μM Oligomycin (to block mitochondrial-derived ATP) and the glucose uptake inhibitors disclosed herein for one-hour, after which glycolytically-derived ATP was measured with the Cell Titer-Glo assay kit (Promega). Dose-response curves of the glucose uptake inhibitors disclosed herein were used to determine the IC50 for GLUT activity.
row,Structure (SMILES),IC50 [nM]
1,"CC(C)(C)CNC(=O)COc1cccc(-c2nc3c(c(Nc4ccc(-c5cn[nH]c5)cc4)n2)COC3)c1 [Example 79, 2-(3-(4-((4-(1H-pyrazol-4-yl)phenyl)amino)-5,7-dihydrofuro[3,4-d]pyrimidin-2-yl)phenoxy)-N-neopentylacetamide]",10 to 100
2,"COc1cncc(C(=O)Nc2cccc(-c3nc4c(c(Nc5ccc(-c6cn[nH]c6)cc5)n3)COC4)c2)c1 [Example 80, N-(3-(4-((4-(1H-pyrazol-4-yl)phenyl)amino)-5,7-dihydrofuro[3,4-d]pyrimidin-2-yl)phenyl)-5-methoxynicotinamide]",10 to 100
3,"O=C(COc1cccc(-c2nc3c(c(Nc4ccc(-c5cn[nH]c5)cc4)n2)COC3)c1)NC1CC(F)(F)C1 [Example 82, 2-(3-(4-((4-(1H-pyrazol-4-yl)phenyl)amino)-5,7-dihydrofuro[3,4-d]pyrimidin-2-yl)phenoxy)-N-(3,3-difluorocyclobutyl)acetamide]",101 to 250
4,"CC(C)NC(=O)COc1cccc(-c2nc3c(c(Nc4ccc(-c5cn[nH]c5)cc4)n2)CSC3)c1 [Example 84, 2-(3-(4-((4-(1H-pyrazol-4-yl)phenyl)amino)-5,7-dihydrothieno[3,4-d]pyrimidin-2-yl)phenoxy)-N-isopropylacetamide]",251 to 500
5,"O=C(COc1cccc(-c2nc3c(c(Nc4ccc(-c5cn[nH]c5)cc4)n2)CSC3)c1)NC1CCC1 [Example 86, 2-(3-(4-((4-(1H-pyrazol-4-yl)phenyl)amino)-5,7-dihydrothieno[3,4-d]pyrimidin-2-yl)phenoxy)-N-cyclobutylacetamide]",101 to 250
6,"O=C(COc1cccc(-c2nc3c(c(Nc4ccc(-c5cn[nH]c5)cc4)n2)CSC3)c1)NC1CCCC1 [Example 87, 2-(3-(4-((4-(1H-pyrazol-4-yl)phenyl)amino)-5,7-dihydrothieno[3,4-d]pyrimidin-2-yl)phenoxy)-N-cyclopentylacetamide]",101 to 250
7,"CCC(CC)NC(=O)COc1cc(F)cc(-c2nc3c(c(Nc4ccc(-c5cn[nH]c5)cc4)n2)COC3)c1 [Example 88, 2-(3-(4-((4-(1H-pyrazol-4-yl)phenyl)amino)-5,7-dihydrofuro[3,4-d]pyrimidin-2-yl)-5-fluorophenoxy)-N-(pentan-3-yl)acetamide]",501 to 1000
8,"O=C(COc1cccc(-c2nc3c(c(Nc4ccc(-c5cn[nH]c5)cc4)n2)COC3)c1)NC1CCCCC1 [Example 89, 2-(3-(4-((4-(1H-pyrazol-4-yl)phenyl)amino)-5,7-dihydrofuro[3,4-d]pyrimidin-2-yl)phenoxy)-N-cyclohexylacetamide]",10 to 100
9,"CC(NC(=O)COc1cccc(-c2nc3c(c(Nc4ccc(-c5cn[nH]c5)cc4)n2)COC3)c1)C(F)(F)F (centres unmarked) [Example 90, 2-(3-(4-((4-(1H-pyrazol-4-yl)phenyl)amino)-5,7-dihydrofuro[3,4-d]pyrimidin-2-yl)phenoxy)-N-(1,1,1-trifluoropropan-2-yl)acetamide]",10 to 100
10,"Cc1ccc(CNc2cccc(-c3nc4c(c(Nc5ccc(-c6cn[nH]c6)cc5)n3)COC4)c2)cn1 [Example 91, N-(4-(1H-pyrazol-4-yl)phenyl)-2-(3-(((6-methylpyridin-3-yl)methyl)amino)phenyl)-5,7-dihydrofuro[3,4-d]pyrimidin-4-amine]",> 1000
11,"Fc1cncc(CNc2cccc(-c3nc4c(c(Nc5ccc(-c6cn[nH]c6)cc5)n3)COC4)c2)c1 [Example 92, N-(4-(1H-pyrazol-4-yl)phenyl)-2-(3-(((5-fluoropyridin-3-yl)methyl)amino)phenyl)-5,7-dihydrofuro[3,4-d]pyrimidin-4-amine]",501 to 1000
12,"Clc1cncc(CNc2cccc(-c3nc4c(c(Nc5ccc(-c6cn[nH]c6)cc5)n3)COC4)c2)c1 [Example 93, N-(4-(1H-pyrazol-4-yl)phenyl)-2-(3-(((5-chloropyridin-3-yl)methyl)amino)phenyl)-5,7-dihydrofuro[3,4-d]pyrimidin-4-amine]",501 to 1000
13,"Cc1cncc(CNc2cccc(-c3nc4c(c(Nc5ccc(-c6cn[nH]c6)cc5)n3)COC4)c2)c1 [Example 94, N-(4-(1H-pyrazol-4-yl)phenyl)-2-(3-(((5-methylpyridin-3-yl)methyl)amino)phenyl)-5,7-dihydrofuro[3,4-d]pyrimidin-4-amine]",501 to 1000
14,"CC(C)NC(=O)COc1cc(-c2nc3c(c(Nc4ccc(-c5cn[nH]c5)cc4)n2)COC3)ccc1F [Example 95, 2-(5-(4-((4-(1H-pyrazol-4-yl)phenyl)amino)-5,7-dihydrofuro[3,4-d]pyrimidin-2-yl)-2-fluorophenoxy)-N-isopropylacetamide]",> 1000
15,"CC(C)(C)NC(=O)COc1cc(-c2nc3c(c(Nc4ccc(-c5cn[nH]c5)cc4)n2)COC3)ccc1F [Example 96, 2-(5-(4-((4-(1H-pyrazol-4-yl)phenyl)amino)-5,7-dihydrofuro[3,4-d]pyrimidin-2-yl)-2-fluorophenoxy)-N-(tert-butyl)acetamide]",> 1000

# Results, then the compound that gave them:
row,IC50 [nM],Structure (SMILES)
1,> 1000,"CCC(CC)NC(=O)COc1cc(-c2nc3c(c(Nc4ccc(-c5cn[nH]c5)cc4)n2)COC3)ccc1F [Example 97, 2-(5-(4-((4-(1H-pyrazol-4-yl)phenyl)amino)-5,7-dihydrofuro[3,4-d]pyrimidin-2-yl)-2-fluorophenoxy)-N-(pentan-3-yl)acetamide]"
2,10 to 100,"CC(C)NC(=O)COc1cccc(-c2nc3c(c(Nc4ccc(-c5cn[nH]c5)cc4)n2)COCC3)c1 [Example 102, 2-(3-(4-((4-(1H-pyrazol-4-yl)phenyl)amino)-7,8-dihydro-5H-pyrano[4,3-d]pyrimidin-2-yl)phenoxy)-N-isopropylacetamide]"
3,10 to 100,"CCC(C)NC(=O)COc1cccc(-c2nc3c(c(Nc4ccc(-c5cn[nH]c5)cc4)n2)COCC3)c1 (centres unmarked) [Example 103, 2-(3-(4-((4-(1H-pyrazol-4-yl)phenyl)amino)-7,8-dihydro-5H-pyrano[4,3-d]pyrimidin-2-yl)phenoxy)-N-(sec-butyl)acetamide]"
4,10 to 100,"CC(C)CNC(=O)COc1cccc(-c2nc3c(c(Nc4ccc(-c5cn[nH]c5)cc4)n2)COCC3)c1 [Example 104, 2-(3-(4-((4-(1H-pyrazol-4-yl)phenyl)amino)-7,8-dihydro-5H-pyrano[4,3-d]pyrimidin-2-yl)phenoxy)-N-isobutylacetamide]"
5,10 to 100,"CC(C)(C)CNC(=O)COc1cccc(-c2nc3c(c(Nc4ccc(-c5cn[nH]c5)cc4)n2)COCC3)c1 [Example 105, 2-(3-(4-((4-(1H-pyrazol-4-yl)phenyl)amino)-7,8-dihydro-5H-pyrano[4,3-d]pyrimidin-2-yl)phenoxy)-N-neopentylacetamide]"
6,10 to 100,"O=C(COc1cccc(-c2nc3c(c(Nc4ccc(-c5cn[nH]c5)cc4)n2)COCC3)c1)NC1CCCC1 [Example 108, 2-(3-(4-((4-(1H-pyrazol-4-yl)phenyl)amino)-7,8-dihydro-5H-pyrano[4,3-d]pyrimidin-2-yl)phenoxy)-N-cyclopentylacetamide]"
7,10 to 100,"O=C(COc1cccc(-c2nc3c(c(Nc4ccc(-c5cn[nH]c5)cc4)n2)COCC3)c1)NC1CCC1 [Example 109, 2-(3-(4-((4-(1H-pyrazol-4-yl)phenyl)amino)-7,8-dihydro-5H-pyrano[4,3-d]pyrimidin-2-yl)phenoxy)-N-cyclobutylacetamide]"
8,101 to 250,"CC(C)(C)NC(=O)COc1cccc(-c2nc(Nc3ccc(-c4cn[nH]c4)cc3)c3sccc3n2)c1 [Example 110, 2-(3-(4-((4-(1H-pyrazol-4-yl)phenyl)amino)thieno[3,2-d]pyrimidin-2-yl)phenoxy)-N-(tert-butyl)acetamide]"
9,101 to 250,"CCC(C)(C)NC(=O)COc1cccc(-c2nc(Nc3ccc(-c4cn[nH]c4)cc3)c3sccc3n2)c1 [Example 111, 2-(3-(4-((4-(1H-pyrazol-4-yl)phenyl)amino)thieno[3,2-d]pyrimidin-2-yl)phenoxy)-N-(tert-pentyl)acetamide]"
10,101 to 250,"CC(=O)N1CCc2nc(-c3cccc(OCC(=O)NC(C)C)c3)nc(Nc3ccc(-c4cn[nH]c4)cc3)c2C1 [Example 112, 2-(3-(4-((4-(1H-pyrazol-4-yl)phenyl)amino)-6-acetyl-5,6,7,8-tetrahydropyrido[4,3-d]pyrimidin-2-yl)phenoxy)-N-isopropylacetamide]"
11,10 to 100,"CCC(CC)NC(=O)COc1cccc(-c2nc3c(c(Nc4ccc(-c5cn[nH]c5)cc4)n2)CN(C(C)=O)CC3)c1 [Example 113, 2-(3-(4-((4-(1H-pyrazol-4-yl)phenyl)amino)-6-acetyl-5,6,7,8-tetrahydropyrido[4,3-d]pyrimidin-2-yl)phenoxy)-N-(pentan-3-yl)acetamide]"
12,10 to 100,"CC(=O)N1CCc2nc(-c3cccc(OCC(=O)NC(C)(C)C)c3)nc(Nc3ccc(-c4cn[nH]c4)cc3)c2C1 [Example 114, 2-(3-(4-((4-(1H-pyrazol-4-yl)phenyl)amino)-6-acetyl-5,6,7,8-tetrahydropyrido[4,3-d]pyrimidin-2-yl)phenoxy)-N-(tert-butyl)acetamide]"
13,501 to 1000,"CCC(CC)NC(=O)COc1cccc(-c2nc3c(c(Nc4ccc(-c5cn[nH]c5)cc4)n2)CN(CC)CC3)c1 [Example 118, 2-(3-(4-((4-(1H-pyrazol-4-yl)phenyl)amino)-6-ethyl-5,6,7,8-tetrahydropyrido[4,3-d]pyrimidin-2-yl)phenoxy)-N-(pentan-3-yl)acetamide]"
14,501 to 1000,"CCC(CC)NC(=O)COc1cccc(-c2nc3c(c(Nc4ccc(-c5cn[nH]c5)cc4)n2)CN(C(C)C)CC3)c1 [Example 119, 2-(3-(4-((4-(1H-pyrazol-4-yl)phenyl)amino)-6-isopropyl-5,6,7,8-tetrahydropyrido[4,3-d]pyrimidin-2-yl)phenoxy)-N-(pentan-3-yl)acetamide]"

# — patent publication US10273248B2, “Glucose uptake inhibitors” (Kadmon Corporation LLC, priority 2015, dated 2019)
